Data: US4888357A, “Antiarthritic β-cycloalkyl-β-oxopropionitriles” (Bristol-Myers Company, priority 1988, dated 1989)
Where two headings read alike, the source gives them in different places.

Experiments:
[1] = tested on: adjuvant-induced arthritis; settings: J. Med. Chem., 1979, 22:1385-9; cited from earlier work
[2] = tested on: adjuvant-induced polyarthritis (hind paw volume); assay: Modified developing adjuvant arthritis in rats (adjuvant-induced polyarthritis, AIP); format: in vivo, male Lewis rats; settings: for inhibition in vivo at 100 mg/kg: 100 mg/kg once daily p.o. d. 1-8
Procedure: A. Modified Developing Adjuvant Arthritis in Rats
This test is based on the procedure originally described by Pearson (Proc. Soc. Biol. Med., 1956, pp 91-5). Each experimental group used six male Lewis rats weighing approx. 250 gm. Arthritis was produced by a single intradermal injection of Mycobacterium butyricum (0.6 mg in 0.1 ml mineral oil) into the base of the tail. Test compounds were administered orally, once daily, starting on the day of inoculation (day 1) through day 8. The initial dosage was reduced during this period when side effects were observed. The paw volume (average of two hind paws) was measured by the merccury displacement method at least twice weekly during the course of the experiment (40 to 42 days). The efficacy of a compound was expressed as the percent reduction of hind paw volume of treated vs. untreated rats using the following equation: [formula]
^a once daily, p.o., from d. 1-8 (unless otherwise specified).
^b % Inhibition of paw edema: 0 = <25; + = 25- <40; ++ = 40-<60; +++

[3] = tested on: delayed-type hypersensitivity (DTH) response; assay: Delayed type hypersensitivity (DTH) response to Mycobacterium butyricum challenge in rats; format: in vivo, male Lewis rats
Procedure: C. Delayed Type Hypersensitivity (DTH)
Male Lewis rats were immunized on Day 1. Mycobacterium butyricum in mineral oil (6 mg/ml) was injected into the base of the tail at 0.1 ml per rat. A negative control group receiving an equal amount of mineral oil was included. Drug therapy was administered orally from day one to day eight. Delayed type hypersensitivity was tested on day 9. Purified protein derivative (Tuberculin PPD, Statens Seruminstitute, Tuberculin Department, DK-2300 Copenhagen S, Denmark) was dissolved in phosphate buffered saline at 2.5 mg/ml. Twenty μl (50 μg) of the PPD solution was injected intradermally into the right ear of the rat, and the conralateral ear received 20 μl of the phosphate buffered saline vehicle. Forty-eight hours after injection the thickness of both ears was measured to the nearest 0.01 mm using a hand held caliper. The difference between the thickness of right and left ears was defined as the delta value for each rat. Group means and standard errors were compared using a Dunnett's 2-tail test.

[4] = Rattus norvegicus, po, 480 h, read d. 20-22, read-out: AIP Inhib. score (% Inhibition of paw edema) d. 20-22
[5] = Rattus norvegicus, po, 960 h, read d. 40-42, read-out: AIP Inhib. score (% Inhibition of paw edema) d. 40-42

## N#CCC(=O)c1ccccc1 [Benzoylacetonitrile (I), Benzoylacetonitrile]
[1]
  inhibition of adjuvant-induced arthritis in rats: effective inhibitors of adjuvant-induced arthritis in rats

## CNC(=O)C(C#N)C(=O)C1CC1 (stereo not drawn) [Example 1, β-Cyclopropyl-β-oxo-α-methylcarbamoylpropionitrile]
[2]; [4]
  inhibition in vivo at 100 mg/kg: 80 to 100%
[2]; [5]
  inhibition in vivo at 100 mg/kg: 80 to 100%
[3]; 10 mg/kg/d × 8 d. p.o.
  % Reduction-DTH: 20%
[3]; 30 mg/kg/d × 8 d. p.o.
  % Reduction-DTH: 41%
[3]; 60 mg/kg/d × 8 d. p.o.
  % Reduction-DTH: 56%
[3]; arthritic rats
  immunomodulating activity (ability to reduce delayed hypersensitivity): exhibits immunomodulating activity

## CN(C)C(=O)C(C#N)C(=O)C1CC1 (stereo not drawn) [Example 3, β-Cyclopropyl-α-dimethylcarbamoyl-β-oxopropionitrile]
[2]; [4]
  inhibition in vivo at 100 mg/kg: 60 to 80%
[2]; [5]
  inhibition in vivo at 100 mg/kg: 60 to 80%

## C#CCNC(=O)C(C#N)C(=O)C1CC1 (stereo not drawn) [Example 4, β-Cyclopropyl-β-oxo-α-propargylcarbamoylpropionitrile]
[2]; 50 mg/kg once daily p.o. d. 1-8, read d. 40-42
  AIP Inhib. score (% Inhibition of paw edema) d. 40-42: ++ +
[2]; Rattus norvegicus, po, 480 h, 50 mg/kg once daily p.o. d. 1-8, read d. 20-22, read-out: AIP Inhib. score (% Inhibition of paw edema) d. 20-22
  inhibition in vivo at 50 mg/kg: 60 to 80%

## N#CC(C(=O)NC1CCC1)C(=O)C1CC1 (stereo not drawn) [Example 6, α-Cyclobutylcarbamoyl-β-cyclopropyl-β-oxopropionitrile]
[2]; [4]
  inhibition in vivo at 100 mg/kg: 25 to 40%
[2]; [5]
  inhibition in vivo at 100 mg/kg: 25 to 40%

## CNC(=O)C(C#N)C(=O)C1CCC1 (stereo not drawn) [Example 7, β-Cyclobutyl-β-oxo-α-methylcarbamoylpropionitrile]
[2]; [4]
  inhibition in vivo at 100 mg/kg: < 25%
[2]; [5]
  inhibition in vivo at 100 mg/kg: 25 to 40%
